From PubChem BioAssay (NCI)
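Growth conditions: 96-well plates. Treatment: test compound, 48 hours, 5 concentrations. Analysis: linear interpolation between bracketing concentrations; unreached endpoints set to highest concentration. GI50 marks 50% less growth. TGI: total growth inhibition.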

Assays:
Assay in all cases: inhibition of tumour cell growth, NCI panel, 48 h
HCC-2998 colon = test system: HCC-2998 colon
UACC-62 melanoma = test system: UACC-62 melanoma
DU-145 prostate = test system: DU-145 prostate
HOP-92 NSCLC = test system: HOP-92 NSCLC
MOLT-4 leukemia = test system: MOLT-4 leukemia
M14 melanoma = test system: M14 melanoma
A498 renal = test system: A498 renal
OVCAR-5 ovarian = test system: OVCAR-5 ovarian
NCI-H522 lung = test system: NCI-H522 lung
NCI-H23 lung = test system: NCI-H23 lung
MDA-MB-231 breast = test system: MDA-MB-231 breast
SNB-19 CNS = test system: SNB-19 CNS
786-0 renal = test system: 786-0 renal
SK-MEL-5 melanoma = test system: SK-MEL-5 melanoma
TK-10 renal = test system: TK-10 renal
MCF7 breast = test system: MCF7 breast
MALME-3M melanoma = test system: MALME-3M melanoma
A549 NSCLC = test system: A549 NSCLC
UACC-257 melanoma = test system: UACC-257 melanoma
NCI-H460 lung = test system: NCI-H460 lung
NCI-H226 lung = test system: NCI-H226 lung
ACHN renal = test system: ACHN renal
HCT-15 colon = test system: HCT-15 colon
OVCAR-3 ovarian = test system: OVCAR-3 ovarian
EKVX NSCLC = test system: EKVX NSCLC
MDA-MB-468 breast = test system: MDA-MB-468 breast
HL-60(TB) leukemia = test system: HL-60(TB) leukemia
OVCAR-4 ovarian = test system: OVCAR-4 ovarian
SN12C renal = test system: SN12C renal
KM12 colon = test system: KM12 colon
RXF 393 renal = test system: RXF 393 renal
HCT-116 colon = test system: HCT-116 colon
SK-OV-3 ovarian = test system: SK-OV-3 ovarian
COLO 205 colon = test system: COLO 205 colon
IGROV1 ovarian = test system: IGROV1 ovarian
HT29 colon = test system: HT29 colon
SF-539 CNS = test system: SF-539 CNS
BT-549 breast = test system: BT-549 breast
U251 CNS = test system: U251 CNS
PC-3 prostate = test system: PC-3 prostate
UO-31 renal = test system: UO-31 renal
CCRF-CEM leukemia = test system: CCRF-CEM leukemia
SF-295 CNS = test system: SF-295 CNS
CAKI-1 renal = test system: CAKI-1 renal
T-47D breast = test system: T-47D breast
SK-MEL-2 melanoma = test system: SK-MEL-2 melanoma
SR leukemia = test system: SR leukemia
SF-268 CNS = test system: SF-268 CNS
LOX IMVI melanoma = test system: LOX IMVI melanoma
K-562 leukemia = test system: K-562 leukemia
MDA-MB-435 = test system: MDA-MB-435
OVCAR-8 ovarian = test system: OVCAR-8 ovarian
SNB-75 CNS = test system: SNB-75 CNS
SW-620 colon = test system: SW-620 colon
HOP-62 NSCLC = test system: HOP-62 NSCLC
SK-MEL-28 melanoma = test system: SK-MEL-28 melanoma
RPMI-8226 leukemia = test system: RPMI-8226 leukemia
HS 578T breast = test system: HS 578T breast

Which results are given for `COc1ccc([C@H]2C(C(=O)c3ccc(Cl)cc3)C3(N[C@@H]2c2ccccc2)C(=O)Nc2ccc(Br)cc23)cc1` (stereo partly specified)?
GI50 (HCC-2998 colon): 8.82 µM; TGI (HCC-2998 colon): 17.9 µM; GI50 (UACC-62 melanoma): 8.75 µM; TGI (UACC-62 melanoma): 16.7 µM; GI50 (DU-145 prostate): 13.5 µM; TGI (DU-145 prostate): 36.7 µM; GI50 (HOP-92 NSCLC): 8.27 µM; TGI (HOP-92 NSCLC): 19.7 µM; GI50 (MOLT-4 leukemia): 14.8 µM; TGI (MOLT-4 leukemia): 47.2 µM; GI50 (M14 melanoma): 9.18 µM; TGI (M14 melanoma): 19.1 µM; GI50 (A498 renal): 10.5 µM; TGI (A498 renal): 24.8 µM; GI50 (OVCAR-5 ovarian): 9.8 µM; TGI (OVCAR-5 ovarian): 19.1 µM; GI50 (NCI-H522 lung): 8.97 µM; TGI (NCI-H522 lung): 20.8 µM; GI50 (NCI-H23 lung): 10.2 µM; TGI (NCI-H23 lung): 20.8 µM; GI50 (MDA-MB-231 breast): 8.88 µM; TGI (MDA-MB-231 breast): 16.5 µM; GI50 (SNB-19 CNS): 15.1 µM; TGI (SNB-19 CNS): > 53.3 µM; GI50 (786-0 renal): 12.4 µM; TGI (786-0 renal): 32.3 µM; GI50 (SK-MEL-5 melanoma): 8.65 µM; TGI (SK-MEL-5 melanoma): 16.5 µM; GI50 (TK-10 renal): 10.8 µM; TGI (TK-10 renal): 28.7 µM; GI50 (MCF7 breast): 11.5 µM; TGI (MCF7 breast): 34.9 µM; GI50 (MALME-3M melanoma): 7.69 µM; TGI (MALME-3M melanoma): 15.1 µM; GI50 (A549 NSCLC): 11.9 µM; TGI (A549 NSCLC): 34.2 µM; GI50 (UACC-257 melanoma): 10.5 µM; TGI (UACC-257 melanoma): 27.9 µM; GI50 (NCI-H460 lung): 10.1 µM; TGI (NCI-H460 lung): 20.9 µM; GI50 (NCI-H226 lung): 8.47 µM; TGI (NCI-H226 lung): 16.4 µM; GI50 (ACHN renal): 13.4 µM; TGI (ACHN renal): 41.6 µM; GI50 (HCT-15 colon): 9.91 µM; TGI (HCT-15 colon): 20.3 µM; GI50 (OVCAR-3 ovarian): 10.5 µM; TGI (OVCAR-3 ovarian): 23.3 µM; GI50 (EKVX NSCLC): 12.4 µM; TGI (EKVX NSCLC): 42.6 µM; GI50 (MDA-MB-468 breast): 10.2 µM; TGI (MDA-MB-468 breast): 27 µM; GI50 (HL-60(TB) leukemia): 11.3 µM; TGI (HL-60(TB) leukemia): 29.8 µM; GI50 (OVCAR-4 ovarian): 13 µM; TGI (OVCAR-4 ovarian): 42.4 µM; GI50 (SN12C renal): 8.53 µM; TGI (SN12C renal): 16 µM; GI50 (KM12 colon): 11.5 µM; TGI (KM12 colon): 25.5 µM; GI50 (RXF 393 renal): 7.29 µM; TGI (RXF 393 renal): 16.2 µM; GI50 (HCT-116 colon): 9.7 µM; TGI (HCT-116 colon): 18.5 µM; GI50 (SK-OV-3 ovarian): 12.3 µM; TGI (SK-OV-3 ovarian): 36.8 µM; GI50 (COLO 205 colon): 8.35 µM; TGI (COLO 205 colon): 16 µM; GI50 (IGROV1 ovarian): 11 µM; TGI (IGROV1 ovarian): 25.9 µM; GI50 (HT29 colon): 9.03 µM; TGI (HT29 colon): 17.1 µM; GI50 (SF-539 CNS): 9.47 µM; TGI (SF-539 CNS): 19.4 µM; GI50 (BT-549 breast): 8.66 µM; TGI (BT-549 breast): 16.6 µM; GI50 (U251 CNS): 9.18 µM; TGI (U251 CNS): 18 µM; GI50 (PC-3 prostate): 12.2 µM; TGI (PC-3 prostate): 31.5 µM; GI50 (UO-31 renal): 10.7 µM; TGI (UO-31 renal): 29.3 µM; GI50 (CCRF-CEM leukemia): 14.4 µM; TGI (CCRF-CEM leukemia): 40.5 µM; GI50 (SF-295 CNS): 9.65 µM; TGI (SF-295 CNS): 20.2 µM; GI50 (CAKI-1 renal): 13.1 µM; TGI (CAKI-1 renal): 42.4 µM; GI50 (T-47D breast): 11.5 µM; TGI (T-47D breast): 33.4 µM; GI50 (SK-MEL-2 melanoma): 8.37 µM; TGI (SK-MEL-2 melanoma): 16 µM; GI50 (SR leukemia): 12.8 µM; TGI (SR leukemia): 35.8 µM; GI50 (SF-268 CNS): 14.4 µM; TGI (SF-268 CNS): 49.7 µM; GI50 (LOX IMVI melanoma): 7.86 µM; TGI (LOX IMVI melanoma): 15.9 µM; GI50 (K-562 leukemia): 15.8 µM; TGI (K-562 leukemia): > 53.3 µM; GI50 (MDA-MB-435): 10.2 µM; TGI (MDA-MB-435): 20.4 µM; GI50 (OVCAR-8 ovarian): 9.68 µM; TGI (OVCAR-8 ovarian): 20.4 µM; GI50 (SNB-75 CNS): 8.73 µM; TGI (SNB-75 CNS): 35.4 µM; GI50 (SW-620 colon): 13.9 µM; TGI (SW-620 colon): 44.8 µM; GI50 (HOP-62 NSCLC): 8.59 µM; TGI (HOP-62 NSCLC): 16.5 µM; GI50 (SK-MEL-28 melanoma): 8.83 µM; TGI (SK-MEL-28 melanoma): 16.8 µM; GI50 (RPMI-8226 leukemia): 14.3 µM; TGI (RPMI-8226 leukemia): 41 µM; GI50 (HS 578T breast): 9.96 µM; TGI (HS 578T breast): 26.6 µM
